Here are results for 5 molecules from US8962623B2, “Aminopyrazine compounds” (Locus Pharmaceuticals, Inc., priority 2011, dated 2015).

One test concerns the target T1, Itk (Homo sapiens, UniProt Q08881).
T1 construct: purchased Invitrogen
T1 sequence (Q08881 1-620): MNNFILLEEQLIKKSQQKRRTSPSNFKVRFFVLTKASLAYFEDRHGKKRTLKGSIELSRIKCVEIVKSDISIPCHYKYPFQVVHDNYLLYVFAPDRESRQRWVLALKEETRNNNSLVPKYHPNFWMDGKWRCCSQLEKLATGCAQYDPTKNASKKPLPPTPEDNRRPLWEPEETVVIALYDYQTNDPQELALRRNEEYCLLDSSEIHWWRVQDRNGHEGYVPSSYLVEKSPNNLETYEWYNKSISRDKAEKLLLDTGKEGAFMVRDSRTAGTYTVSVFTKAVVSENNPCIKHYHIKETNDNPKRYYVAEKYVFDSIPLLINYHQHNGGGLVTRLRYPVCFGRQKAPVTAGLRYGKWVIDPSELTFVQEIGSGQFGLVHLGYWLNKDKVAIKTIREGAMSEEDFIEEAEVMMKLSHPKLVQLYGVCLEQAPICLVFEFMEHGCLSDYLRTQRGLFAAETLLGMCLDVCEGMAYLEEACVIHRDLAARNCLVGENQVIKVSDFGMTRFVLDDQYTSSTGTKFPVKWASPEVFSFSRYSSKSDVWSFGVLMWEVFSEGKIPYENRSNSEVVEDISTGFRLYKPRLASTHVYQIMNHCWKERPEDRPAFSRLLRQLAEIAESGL
In words: Itk in vitro inhibitory activity in radioassay (33P incorporation into Phospholipase C-γ-1). The test is classed as biochemical. The settings on record: 20 μM ATP solution, read-out: IC50 over Itk. On the procedure: The Itk protein kinase activity (Invitrogen) was determined by measuring the incorporation of ^33P from γ-[^33P] ATP into the Phospholipase C-γ-1 substrate (Calbiochem). The dilution series of the compound of the present invention were dissolved in DMSO. The diluted solution (1 μl) of the compounds of the present invention in DMSO was added to a 96-well assay plate. Additionally, Itk kinase solution (39 μL) composed of 3.2 nM Itk (Invitrogen) in reaction buffer (12.5 mM Tris (pH 7.5), 0.01% Triton X-100, 5% glycerol, 10 mM MgCl2, 1 mM EGTA, 5 mM glycerol 2-phosphate, 2 mM DTT and 0.5 mM sodium orthovanadate) was added to the assay plates. The solution was pre-incubated for 20 minutes at 30° C. with shaking. Then ATP/substrate solution (10 μl) composed of […] Phospholipase C-γ-1 (Calbiochem), 1.5% v/v γ-^33P-ATP (PerkinElmer), 20 μM ATP and reaction buffer was added. After incubating at 30° C. with shaking for 70 minutes, the reaction was stopped by adding 10 μl of 0.6 M phosphoric acid to each well. The each reaction from the assay plate was transferred and captured on a phosphocellulose 96-well plate (Millipore MAPHNOB). The reaction mixture was analyzed on the PerkinElmer TopCount NXT HTS 96-well Liquid Scintillation counter.
Inhibition rate (%) of the compound was calculated with the following formula: Inhibition rate(%)={1−(Bx−B100)/(B0−B100)}×100
BX: average counts for the compound
B100: average counts for 100% inhibition control (i.e., no enzyme, no compound)
B0: average counts for 0% inhibition control (i.e., no compound)
The value of 50% inhibition rate (IC50) for the compound was defined as the concentration of the test compound that caused a 50% decrease in the maximum inhibition. IC50 values were calculated from replicate curves by non-linear regression using the sigmoidal dose-response equation in GraphPad Prism software.

A further test has as its target Btk (Homo sapiens, UniProt Q06187). In words: Inhibitory activity to Btk (similar procedure). The test is classed as biochemical. The note with it: selectivity ratio. The method, then:
(§1) Study of inhibitory activity to other various kinases (e.g. Lck, InsR, Btk) was performed in similar procedure above described.

Another test concerns the target InsR (Homo sapiens, UniProt P06213). The test is described as follows: Inhibitory activity to InsR (similar procedure). Format: biochemical. The note with it: selectivity ratio. On the procedure: as §1
Another test has as its target Lck (Homo sapiens, UniProt P06239). In words: Inhibitory activity to Lck (similar procedure). Format: biochemical. The note with it: selectivity ratio. The method, then: Study of inhibitory activity to Lck was performed in similar procedure above described.
as §1

The test system of test [1] is IL-2 production in mouse whole blood. In words: Mouse whole blood IL-2 assay. The note with it: anti-CD3/anti-CD28 stimulation, 18 hours, IL-2 by ELISA. The test is classed as cell-based, BALB/c mouse. On the procedure: The dilution series of the compound of the present invention in DMSO were further diluted by addition of RPMI1640 medium (Invitrogen). The diluted compound solution (6.5 μl) was added to a 96-well plate. BALB/c mouse heparinized peripheral blood was diluted 1:2 in RPMI1640, and added 123.5 μl of the diluted blood to the compound plate. The blood samples were pre-incubated at 37° C. for 30 minutes. Anti-CD3 and anti-CD28 antibody mixture (6 μl; 20 μg/mL each) was spotted into a 96 well assay plates. Pre-treated blood samples (114 μl) were added to each well and the plate was incubated for 18 hours at 37° C. in 5% CO2. After the incubation, supernatants were collected by centrifugation at 300×g for 10 min. IL-2 concentration was determined by ELISA method. The inhibition rate (%) of the compound was calculated with the following formula: Inhibition rate(%)={1−(Cx−C100)/(C0−C100)}×100
CX: IL-2 concentration for the compound
C100: IL-2 concentration for 100% inhibition control (i.e., no stimulation, no compound)
C0: IL-2 concentration for 0% inhibition control (i.e., no compound)
The value of 50% inhibition rate (IC50) for the compound was determined from inhibition curve based on inhibition rate at each concentration of the compound of the present invention.
On the technique in general: In an ELISA, binding on a coated surface is turned into a signal by an enzyme label.

Sequence of InsR (P06213 28-1382, species assumed): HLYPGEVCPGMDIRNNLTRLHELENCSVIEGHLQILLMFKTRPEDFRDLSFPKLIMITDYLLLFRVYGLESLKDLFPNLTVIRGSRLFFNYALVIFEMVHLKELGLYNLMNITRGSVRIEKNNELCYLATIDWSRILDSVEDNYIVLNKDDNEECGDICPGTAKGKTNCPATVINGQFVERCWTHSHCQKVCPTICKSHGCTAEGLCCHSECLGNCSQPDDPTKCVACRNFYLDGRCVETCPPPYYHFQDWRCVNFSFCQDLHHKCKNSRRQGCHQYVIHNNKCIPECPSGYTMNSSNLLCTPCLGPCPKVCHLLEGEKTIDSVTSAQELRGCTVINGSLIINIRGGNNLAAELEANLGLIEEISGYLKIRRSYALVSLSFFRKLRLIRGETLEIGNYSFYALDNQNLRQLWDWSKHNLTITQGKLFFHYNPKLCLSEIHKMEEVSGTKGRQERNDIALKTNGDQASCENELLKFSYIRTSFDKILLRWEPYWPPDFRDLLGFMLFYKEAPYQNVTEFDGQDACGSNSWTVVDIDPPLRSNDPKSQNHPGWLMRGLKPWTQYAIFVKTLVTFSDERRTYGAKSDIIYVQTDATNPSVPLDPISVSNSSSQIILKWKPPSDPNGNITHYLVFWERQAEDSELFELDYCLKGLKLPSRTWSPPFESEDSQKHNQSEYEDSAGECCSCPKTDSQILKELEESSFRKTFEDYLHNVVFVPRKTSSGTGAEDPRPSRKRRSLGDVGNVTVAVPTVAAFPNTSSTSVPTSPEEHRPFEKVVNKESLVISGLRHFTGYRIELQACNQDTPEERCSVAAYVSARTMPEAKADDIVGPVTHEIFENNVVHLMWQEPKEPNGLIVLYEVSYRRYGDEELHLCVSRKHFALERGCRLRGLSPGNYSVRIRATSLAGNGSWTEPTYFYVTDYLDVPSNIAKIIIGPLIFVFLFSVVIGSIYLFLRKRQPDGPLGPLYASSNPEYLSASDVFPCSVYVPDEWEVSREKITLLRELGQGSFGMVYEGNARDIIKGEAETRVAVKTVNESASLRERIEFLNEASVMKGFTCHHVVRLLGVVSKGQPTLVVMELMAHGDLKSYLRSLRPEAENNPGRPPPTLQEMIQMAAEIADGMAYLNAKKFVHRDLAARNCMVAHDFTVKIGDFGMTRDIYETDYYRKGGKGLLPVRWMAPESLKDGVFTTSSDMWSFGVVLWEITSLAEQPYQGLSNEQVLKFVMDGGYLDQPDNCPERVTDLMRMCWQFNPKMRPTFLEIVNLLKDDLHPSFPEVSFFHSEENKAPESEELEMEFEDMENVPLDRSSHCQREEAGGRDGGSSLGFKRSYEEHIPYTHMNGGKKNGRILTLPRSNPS
Sequence of Lck (P06239 whole entry, species assumed): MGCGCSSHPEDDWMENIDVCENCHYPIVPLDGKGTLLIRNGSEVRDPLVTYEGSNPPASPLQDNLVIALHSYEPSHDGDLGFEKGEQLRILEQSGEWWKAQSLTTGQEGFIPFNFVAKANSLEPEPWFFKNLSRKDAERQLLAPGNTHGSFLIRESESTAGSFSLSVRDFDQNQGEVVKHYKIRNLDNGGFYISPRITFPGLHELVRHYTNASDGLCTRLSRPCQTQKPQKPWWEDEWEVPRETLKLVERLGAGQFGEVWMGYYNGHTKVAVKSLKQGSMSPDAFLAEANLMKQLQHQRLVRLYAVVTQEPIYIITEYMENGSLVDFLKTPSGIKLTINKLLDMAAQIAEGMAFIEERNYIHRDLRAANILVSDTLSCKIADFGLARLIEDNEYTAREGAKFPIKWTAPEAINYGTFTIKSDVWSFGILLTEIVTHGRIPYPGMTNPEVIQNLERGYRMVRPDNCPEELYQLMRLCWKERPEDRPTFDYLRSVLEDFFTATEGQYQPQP
Sequence of Btk (Q06187 whole entry, species assumed): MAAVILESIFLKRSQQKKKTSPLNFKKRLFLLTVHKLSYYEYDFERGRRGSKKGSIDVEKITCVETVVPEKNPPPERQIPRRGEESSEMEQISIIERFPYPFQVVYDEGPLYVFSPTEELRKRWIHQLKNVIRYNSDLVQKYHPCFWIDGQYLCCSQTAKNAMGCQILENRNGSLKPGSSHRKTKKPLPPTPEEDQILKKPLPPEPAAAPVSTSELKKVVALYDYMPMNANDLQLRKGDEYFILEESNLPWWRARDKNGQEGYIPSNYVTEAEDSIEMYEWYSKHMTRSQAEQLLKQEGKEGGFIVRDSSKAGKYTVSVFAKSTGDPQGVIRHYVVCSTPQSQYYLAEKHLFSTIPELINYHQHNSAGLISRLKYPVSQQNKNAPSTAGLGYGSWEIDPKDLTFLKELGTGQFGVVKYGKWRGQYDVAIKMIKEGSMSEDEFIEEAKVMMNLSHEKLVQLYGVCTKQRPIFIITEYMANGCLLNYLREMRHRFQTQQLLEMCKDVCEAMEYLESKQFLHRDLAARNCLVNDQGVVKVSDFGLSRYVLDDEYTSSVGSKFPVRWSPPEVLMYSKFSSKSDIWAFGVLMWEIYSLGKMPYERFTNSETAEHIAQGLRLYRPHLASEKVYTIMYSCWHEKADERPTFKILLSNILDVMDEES

On to `COc1cccc(-n2c(=O)c(C(=O)Nc3ccc(-c4nc(-c5ccnc(N6CC(OC)C6)c5)cnc4N)nc3)c(C)n2C)c1` [Example 29(33), N-(6-{3-amino-6-[2-(3-methoxy-1-azetidinyl)-4-pyridinyl]-2-pyrazinyl}-3-pyridinyl)-2-(3-methoxyphenyl)-1,5-dimethyl-3-oxo-2,3-dihydro-1H-pyrazole-4-carboxamide], for which the IC50 on Itk turned out to be 4 nM.

Take `COC1CCN(c2cccc(-c3cnc(N)c(-c4ccc(NC(=O)c5c(C)n(C)n(-c6cccc(C)c6)c5=O)cc4)n3)n2)CC1` [Example 17(11), N-(4-{3-amino-6-[6-(4-methoxy-1-piperidinyl)-2-pyridinyl]-2-pyrazinyl}phenyl)-1,5-dimethyl-2-(3-methylphenyl)-3-oxo-2,3-dihydro-1H-pyrazole-4-carboxamide]: at Btk, the “Btk[IC50]/Itk[IC50]” value is given as more than 1000. In addition, on InsR, the “InsR[IC50]/Itk[IC50]” value is given as more than 300. The “Lck[IC50]/Itk[IC50]” value at Lck is more than 300. Also, the IC50 at Itk came out at 1 nM.

As to `Cc1c(C(=O)Nc2ccc(-c3nc(-c4ccnc(N5CCOCC5)c4)cnc3N)nc2)c(=O)n(-c2cccc(Cl)c2)n1C` [Example 29(2), N-(6-{3-amino-6-[2-(4-morpholinyl)-4-pyridinyl]-2-pyrazinyl}-3-pyridinyl)-2-(3-chlorophenyl)-1,5-dimethyl-3-oxo-2,3-dihydro-1H-pyrazole-4-carboxamide], the “Btk[IC50]/Itk[IC50]” value on Btk is more than 1000. Besides, on InsR, the “InsR[IC50]/Itk[IC50]” value is more than 1000. For the same molecule, on Lck, the “Lck[IC50]/Itk[IC50]” value is listed as more than 360. The IC50 in test [1] came out at 350 nM; at Itk, 1 nM.

In the case of `Cc1c(C(=O)Nc2ccc(-c3nc(-c4cccc(N5CCOCC5)n4)cnc3N)cc2)c(=O)n(-c2ccccc2)n1C` [Example 7(6), N-(4-{3-amino-6-[6-(4-morpholinyl)-2-pyridinyl]-2-pyrazinyl}phenyl)-1,5-dimethyl-3-oxo-2-phenyl-2,3-dihydro-1H-pyrazole-4-carboxamide], at Btk, the “Btk[IC50]/Itk[IC50]” value is more than 200. Also, at InsR, the “InsR[IC50]/Itk[IC50]” value was 100. In addition, the “Lck[IC50]/Itk[IC50]” value at Lck is listed as 85. Further, the IC50 on Itk was 2 nM.

As for `COC1CN(c2cccc(-c3cnc(N)c(-c4ccc(NC(=O)c5c(C)n(C)n(-c6cccc(Cl)c6)c5=O)cc4)n3)n2)C1` [Example 14(12), N-(4-{3-amino-6-[6-(3-methoxy-1-azetidinyl)-2-pyridinyl]-2-pyrazinyl}phenyl)-2-(3-chlorophenyl)-1,5-dimethyl-3-oxo-2,3-dihydro-1H-pyrazole-4-carboxamide], the “Btk[IC50]/Itk[IC50]” value at Btk is recorded as more than 500. In addition, on InsR, the “InsR[IC50]/Itk[IC50]” value is 1400. Besides, the “Lck[IC50]/Itk[IC50]” value at Lck is given as 185. In addition, the IC50 at Itk stood at 2 nM.

A word on the IC50: it is the concentration needed to halve the response being measured.
